Reference: the supplement of paper PMC10307832

Experiments:
Test in all cases: relative viability (nuclei count vs DMSO), 5 days (fraction); higher = more cells survive
[1] = compound: C/C(=N\NC(=S)N1CCC1)/C2=CC=CC=N2
How it was run: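 Nuclei counted with MetaXpress define viability as the ratio of treated to vehicle wells, given as a median across plates. The lung cancer cell lines were in 1536-well plates, pinned with five √10-spaced library-drug doses and imaged at 4× after 5 days and Hoechst staining. Plates passed with control CV below 25% and at least one doubling.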

[2] = compound: C/C(=N\NC(=S)N1CCC1)/C2=CC=CC=N2 + CC1(C)CCC(c2ccc(Cl)cc2)=C(CN2CCN(c3ccc(C(=O)NS(=O)(=O)c4ccc(N[C@H](CCN5CCOCC5)CSc5ccccc5)c(S(=O)(=O)C(F)(F)F)c4)cc3)CC2)C1 [Navitoclax] (partner 0.5 µM)
How it was run: (§1)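 One day after seeding in 1536-well plates, lung cancer cell lines were dosed by pin tool. Dosing was either single-drug or a fixed anchor-drug dose plus five library-drug doses (not always all listed) in √10 steps. After 5 days, nuclei were stained in one fix-and-stain step and counted on 4× images, and relative viability is the nuclei count of treated wells over that of vehicle wells, given as the median of duplicate plates.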

[3] = compound: C/C(=N\NC(=S)N1CCC1)/C2=CC=CC=N2 + Cc1cc(Nc2cc(N3CCN(C)CC3)nc(Sc3ccc(NC(=O)C4CC4)cc3)n2)n[nH]1 [Tozasertib] (partner 0.1 µM)
How it was run: as §1

[4] = compound: C/C(=N\NC(=S)N1CCC1)/C2=CC=CC=N2 + N=C(N)NC(=N)NCCc1ccccc1 [Phenformin] (partner 250 µM)
How it was run: as §1

| Cell Line | relative viability ([1]; 0.05 µM) | relative viability ([1]; 0.1581 µM) | relative viability ([1]; 0.5 µM) | relative viability ([1]; 1.581 µM) | relative viability ([1]; 5 µM) | relative viability ([2]; first compound 0.05 µM) | relative viability ([2]; first compound 0.1581 µM) | relative viability ([2]; first compound 0.5 µM) | relative viability ([2]; first compound 1.581 µM) | relative viability ([2]; first compound 5 µM) | relative viability ([3]; first compound 0.05 µM) | relative viability ([3]; first compound 0.1581 µM) | relative viability ([3]; first compound 0.5 µM) | relative viability ([3]; first compound 1.581 µM) | relative viability ([3]; first compound 5 µM) | relative viability ([4]; first compound 0.05 µM) | relative viability ([4]; first compound 0.1581 µM) | relative viability ([4]; first compound 0.5 µM) | relative viability ([4]; first compound 1.581 µM) | relative viability ([4]; first compound 5 µM) |
| --- | --- | --- | --- | --- | --- | --- | --- | --- | --- | --- | --- | --- | --- | --- | --- | --- | --- | --- | --- | --- |
| NCI-H1650 | 0.18 | 0.26 | 0.183 | 0.173 | 0.199 | 0.13 | 0.173 | 0.142 | 0.181 | 0.214 | 0.121 | 0.187 | 0.126 | 0.16 | 0.194 | 0.122 | 0.16 | 0.194 | 0.14 | 0.18 |
| NCI-H1651 | 0.19 | 0.175 | 0.152 | 0.11 | 0.105 | 0.0866 | 0.0844 | 0.0783 | 0.0702 | 0.081 | 0.136 | 0.114 | 0.108 | 0.0885 | 0.0771 | 0.176 | 0.169 | 0.185 | 0.0924 | 0.0954 |
| NCI-H1666 | 0.433 | 0.404 | 0.369 | 0.349 | 0.329 | 0.185 | 0.248 | 0.208 | 0.248 | 0.262 | 0.35 | 0.33 | 0.301 | 0.3 | 0.305 | 0.467 | 0.462 | 0.419 | 0.433 | 0.361 |
| NCI-H1734 | 0.184 | 0.186 | 0.189 | 0.13 | 0.116 | 0.0989 | 0.104 | 0.0882 | 0.0843 | 0.0776 | 0.135 | 0.15 | 0.152 | 0.116 | 0.121 | 0.147 | 0.206 | 0.194 | 0.12 | 0.132 |
| NCI-H1755 | 0.353 | 0.332 | 0.321 | 0.303 | 0.282 | 0.321 | 0.928 | 0.142 | 0.18 | 0.186 | 0.465 | 0.305 | 0.213 | 0.278 | 0.258 | 0.328 | 0.311 | 0.288 | 0.33 | 0.271 |
| NCI-H1793 | 0.181 | 0.215 | 0.176 | 0.16 | 0.168 | 0.225 | 0.208 | 0.19 | 0.149 | 0.225 | 0.164 | 0.209 | 0.152 | 0.136 | 0.126 | 0.131 | 0.201 | 0.188 | 0.147 | 0.156 |
| NCI-H1915 | 0.237 | 0.216 | 0.199 | 0.179 | 0.178 | 0.522 | 0.742 | 0.169 | 0.15 | 0.137 | 0.178 | 0.137 | 0.129 | 0.131 | 0.139 | 0.253 | 0.231 | 0.221 | 0.178 | 0.179 |
| NCI-H1944 | 0.263 | 0.179 | 0.19 | 0.161 | 0.151 | 0.684 | 0.988 | 0.392 | 0.189 | 0.18 | 0.248 | 0.181 | 0.127 | 0.0988 | 0.107 | 0.119 | 0.144 | 0.127 | 0.145 | 0.146 |
| NCI-H1975 | 0.178 | 0.179 | 0.168 | 0.158 | 0.185 | 0.169 | 0.143 | 0.152 | 0.163 | 0.168 | 0.105 | 0.0772 | 0.0873 | 0.101 | 0.0836 | 0.187 | 0.187 | 0.159 | 0.12 | 0.133 |
| NCI-H1993 | 0.472 | 0.529 | 0.593 | 0.499 | 0.577 | 0.664 | 0.662 | 0.638 | 0.511 | 0.533 | 0.479 | 0.466 | 0.449 | 0.513 | 0.51 | 0.524 | 0.495 | 0.627 | 0.581 | 0.526 |
| NCI-H2009 | 0.122 | 0.17 | 0.166 | 0.156 | 0.138 | 0.1 | 0.136 | 0.0927 | 0.158 | 0.131 | 0.103 | 0.148 | 0.143 | 0.183 | 0.149 | 0.125 | 0.185 | 0.221 | 0.154 | 0.184 |
| NCI-H2023 | 0.0831 | 0.0809 | 0.0814 | 0.0675 | 0.0747 | 0.0701 | 0.096 | 0.0791 | 0.0888 | 0.0996 | 0.063 | 0.0672 | 0.0602 | 0.0657 | 0.0603 | 0.102 | 0.106 | 0.0921 | 0.0767 | 0.0997 |
| NCI-H2085 | 0.359 | 0.321 | 0.357 | 0.299 | 0.313 | 0.246 | 0.248 | 0.245 | 0.248 | 0.281 | 0.372 | 0.366 | 0.388 | 0.315 | 0.315 | 0.198 | 0.297 | 0.243 | 0.178 | 0.239 |
| NCI-H2087 | 0.16 | 0.218 | 0.19 | 0.165 | 0.138 | 0.248 | 0.212 | 0.185 | 0.146 | 0.18 | 0.0992 | 0.0962 | 0.114 | 0.0938 | 0.0874 | 0.141 | 0.156 | 0.166 | 0.0953 | 0.0819 |
| NCI-H2126 | 0.236 | 0.246 | 0.214 | 0.197 | 0.21 | 0.328 | 0.828 | 0.265 | 0.281 | 0.27 | 0.174 | 0.167 | 0.193 | 0.162 | 0.19 | 0.396 | 0.407 | 0.364 | 0.316 | 0.381 |
| NCI-H2170 | 0.391 | 0.282 | 0.268 | 0.198 | 0.176 | 0.581 | 0.543 | 0.168 | 0.207 | 0.189 | 0.659 | 0.334 | 0.197 | 0.113 | 0.141 | 0.263 | 0.26 | 0.22 | 0.222 | 0.153 |
| NCI-H2228 | 0.192 | 0.217 | 0.21 | 0.118 | 0.187 | 0.181 | 0.132 | 0.13 | 0.117 | 0.123 | 0.0977 | 0.114 | 0.126 |  | 0.116 | 0.127 | 0.158 | 0.172 |  | 0.111 |
| NCI-H2347 | 0.315 | 0.346 | 0.34 | 0.256 | 0.313 | 0.214 | 0.263 | 0.195 | 0.16 | 0.193 | 0.173 | 0.254 | 0.177 | 0.244 | 0.258 | 0.159 | 0.195 | 0.202 | 0.208 | 0.273 |
| NCI-H2405 | 0.294 | 0.296 | 0.288 | 0.274 | 0.283 | 0.0935 | 0.0799 | 0.114 | 0.256 | 0.246 | 0.24 | 0.286 | 0.266 | 0.239 | 0.253 | 0.21 | 0.235 | 0.24 | 0.199 | 0.262 |
| NCI-H3122 | 0.13 | 0.121 | 0.129 | 0.168 | 0.141 | 0.132 | 0.137 | 0.156 | 0.247 | 0.216 | 0.0931 | 0.0762 | 0.0946 | 0.109 | 0.0776 | 0.0982 | 0.0876 | 0.119 | 0.128 | 0.124 |
| PC-3 [JPC-3] | 0.473 | 0.459 | 0.358 | 0.309 | 0.231 | 0.42 | 0.855 | 0.281 | 0.253 | 0.285 | 0.612 | 0.474 | 0.3 | 0.281 | 0.241 | 0.332 | 0.342 | 0.334 | 0.277 | 0.195 |
| PC-14 | 0.0727 | 0.104 | 0.0714 | 0.0553 | 0.064 | 0.0569 | 0.0561 | 0.0604 | 0.061 | 0.0618 | 0.0506 | 0.0536 | 0.0474 | 0.05 | 0.0386 | 0.0972 | 0.134 | 0.095 | 0.0228 | 0.0472 |
| RERF-LC-KJ | 0.263 | 0.262 | 0.252 | 0.244 | 0.248 | 0.184 | 0.266 | 0.245 | 0.159 | 0.227 | 0.203 | 0.208 | 0.246 | 0.217 | 0.242 | 0.316 | 0.279 | 0.319 | 0.273 | 0.287 |
| SK-LU-1 | 0.24 | 0.233 | 0.25 | 0.168 | 0.208 | 0.183 | 0.167 | 0.148 | 0.124 | 0.112 | 0.141 | 0.124 | 0.174 | 0.0952 | 0.136 | 0.124 | 0.152 | 0.174 | 0.104 | 0.123 |
| SK-MES-1 | 0.197 | 0.231 | 0.192 | 0.171 | 0.19 | 0.186 | 0.21 | 0.18 | 0.13 | 0.185 | 0.22 | 0.188 | 0.183 | 0.158 | 0.147 | 0.219 | 0.233 | 0.197 | 0.175 | 0.173 |
| SW 1573 | 0.119 | 0.115 | 0.143 | 0.102 | 0.0766 | 0.138 | 0.0732 | 0.0916 | 0.0833 | 0.0479 | 0.0614 | 0.0887 | 0.0999 | 0.0752 | 0.0626 | 0.0755 | 0.0616 | 0.0965 | 0.0629 | 0.0599 |
| UMC-11 | 0.262 | 0.241 | 0.23 | 0.193 | 0.175 | 0.16 | 0.138 | 0.119 | 0.116 | 0.106 | 0.196 | 0.177 | 0.196 | 0.192 | 0.185 | 0.202 | 0.19 | 0.207 | 0.185 | 0.168 |
